Source: patent US11702422B2, “Imidazopyridazines as modulators of IL-17” (Janssen Pharmaceutica NV, priority 2020, dated 2023)
Counter-ions that a name gives are not always drawn.

Tests used:
[1] = molecular target: IL-17A(FLAG-Tagged): IL-17RA(His-Tagged) (Homo sapiens, UniProt Q16552, K93Q); experiment: IL-17A(FLAG-Tagged): IL-17RA(His-Tagged) Binding Disruption Eu-HTRF Assay; conditions: IL-17A/IL-17RA binding disruption, simple average if tested more than once
Procedure, shortened: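 IC50 comes from a one-site competition fit of the HTRF 665/620 nm ratio. Compound dilutions (2-fold, 22 points) were held 1 h rt with FLAG-tagged IL-17A dimer, then His-tagged IL-17RA plus Eu-cryptate anti-FLAG and D2 anti-His antibodies were added for 2 h rt.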

[2] = system: IL-17A-induced G-CSF production in human normal keratinocyte (NHK); experiment: NHK Assay: IL-17A-induced G-CSF production in human normal keratinocytes; format: cell-based; conditions: 24 h, adult normal human keratinocytes, IL-17A 5 ng/mL, simple average if tested more than once
Procedure, shortened: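 Titrated compound plus recombinant human IL-17A (pre-incubated 1 h, rt) were applied to adult human keratinocytes at 5 ng/mL cytokine, 0.2% DMSO. Cultures ran 24 h at 37° C, and supernatant G-CSF was measured by HTRF to derive IC50.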

Chain of UniProt Q16552 (Q16552 with tags, fused parts or gaps K93Q): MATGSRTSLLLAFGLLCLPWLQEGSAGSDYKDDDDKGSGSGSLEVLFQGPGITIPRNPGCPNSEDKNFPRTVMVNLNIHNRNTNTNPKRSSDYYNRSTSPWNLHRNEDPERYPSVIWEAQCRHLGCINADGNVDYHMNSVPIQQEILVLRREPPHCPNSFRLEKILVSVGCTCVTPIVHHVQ

IC50 [1] | Compound | IC50 ([2]; Homo sapiens, Keratinocyte) | IC50 [2]
120 nM | Cc1nonc1C(=O)N[C@H](c1cn2ncc([C@H](NC(=O)CCC(C)(F)F)C3CC3)cc2n1)C1CCC(F)(F)CC1 [Example 259, N—((S)-(7-((R)-Cyclopropyl(4,4-difluoropentanamido)methyl)imidazo[1,2-b]pyridazin-2-yl)(4,4-difluorocyclohexyl)methyl)-4-methyl-1,2,5-oxadiazole-3-carboxamide] | 620 nM | 
96 nM | Cc1nonc1C(=O)N[C@H](c1cn2ncc(C(NC(=O)CC3CC(F)(F)C3)C3CCOCC3)cc2n1)C1CCC(F)(F)CC1 (single isomer, unassigned) [Example 534, N—((S)-(7-((R*)-1-(2-(3,3-Difluorocyclobutyl)acetamido)(tetrahydro-2H-pyran-4-yl)methyl)imidazo[1,2-b]pyridazin-2-yl)(4,4-difluorocyclohexyl)methyl)-4-methyl-1,2,5-oxadiazole-3-carboxamide] | 70 nM | 
56 nM | O=C(CC1CC(F)(F)C1)N[C@@H](c1cnn2cc([C@@H](NC(=O)c3nonc3OCC(F)F)C3CCC(F)(F)CC3)nc2c1)C1CC1 [Example 389, N—((S)-(7-((R)-Cyclopropyl(2-(3,3-difluorocyclobutyl)acetamido)methyl)imidazo[1,2-b]pyridazin-2-yl)(4,4-difluorocyclohexyl)methyl)-4-(2,2-difluoroethoxy)-1,2,5-oxadiazole-3-carboxamide] | 29 nM | 
200 nM | CC(C)(O)Cc1nonc1C(=O)N[C@H](c1cn2ncc([C@H](NC(=O)CC3CC(F)(F)C3)C3CC3)cc2n1)C1CCC(F)(F)CC1 [Example 394, N—((S)-(7-((R)-Cyclopropyl(2-(3,3-difluorocyclobutyl)acetamido)methyl)imidazo[1,2-b]pyridazin-2-yl)(4,4-difluorocyclohexyl)methyl)-4-(2-hydroxy-2-methylpropyl)-1,2,5-oxadiazole-3-carboxamide] | 240 nM | 
48 nM | Cc1nocc1C(=O)N[C@H](c1cn2ncc([C@H](NC(=O)CC3CC(F)(F)C3)C3CC3)cc2n1)C1CCC(F)(F)CC1 [Example 120, N—((S)-(7-((R)-Cyclopropyl(2-(3,3-difluorocyclobutyl)acetamido)methyl)imidazo[1,2-b]pyridazin-2-yl)(4,4-difluorocyclohexyl)methyl)-3-methylisoxazole-4-carboxamide] | 150 nM | 
110 nM | O=C(CC1CC(F)(F)C1)N[C@@H](c1cnn2cc([C@@H](NC(=O)c3nonc3C(O)C3CC3)C3CCC(F)(F)CC3)nc2c1)C1CC1 (single isomer, unassigned) [Example 402, N—((S)-(7-((R)-Cyclopropyl(2-(3,3-difluorocyclobutyl)acetamido)methyl)imidazo[1,2-b]pyridazin-2-yl)(4,4-difluorocyclohexyl)methyl)-4-((S*)-cyclopropyl(hydroxy)methyl)-1,2,5-oxadiazole-3-carboxamide] |  | 110 nM

The next lines start with the compound.

Compound | IC50 [1] | IC50 ([2]; Homo sapiens, Keratinocyte) | IC50 [2]
[2H]C([2H])([2H])n1nccc1C(=O)N[C@H](c1cn2ncc(C(NC(=O)CC3CC(F)(F)C3)C3CCC3)cc2n1)C1CCC(F)(F)CC1 (single isomer, unassigned) [Example 497, N—((S)-(7-((R*)-Cyclobutyl(2-(3,3-difluorocyclobutyl)acetamido)methyl)imidazo[1,2-b]pyridazin-2-yl)(4,4-difluorocyclohexyl)methyl)-1-(methyl-d3)-1H-pyrazole-5-carboxamide] | 91 nM | 150 nM | 
O=C(N[C@H](c1cn2ncc(CNC(=O)[C@H]3NCCC[C@@H]3C(F)(F)F)cc2n1)C1CCCCC1)c1ccccc1 (relative stereo) [Example 2, (Trans-2S*,3S*)—N-((2-((S)-benzamido(cyclohexyl)methyl)imidazo[1,2-b]pyridazin-7-yl)methyl)-3-(trifluoromethyl)piperidine-2-carboxamide hydrochloride] | 7600 nM | > 20000 nM | 
[2H]C([2H])([2H])C([2H])([2H])n1nccc1C(=O)N[C@H](c1cn2ncc([C@H](NC(=O)CC3CC(F)(F)C3)C3CC3)cc2n1)C1CCC(F)(F)CC1 [Example 234, N—((S)-(7-((R)-Cyclopropyl(2-(3,3-difluorocyclobutyl)acetamido)methyl)imidazo[1,2-b]pyridazin-2-yl)(4,4-difluorocyclohexyl)methyl)-1-(ethyl-d5)-1H-pyrazole-5-carboxamide] | 85 nM | 52 nM | 
Cc1nonc1C(=O)N[C@@H](CC(C)(C)C(F)(F)F)c1cn2ncc([C@H](NC(=O)CC3CC(F)(F)C3)C3CC3)cc2n1 [Example 544, N—((S)-1-(7-((R)-Cyclopropyl(2-(3,3-difluorocyclobutyl)acetamido)methyl)imidazo[1,2-b]pyridazin-2-yl)-4,4,4-trifluoro-3,3-dimethylbutyl)-4-methyl-1,2,5-oxadiazole-3-carboxamide] | 120 nM | 240 nM | 
CCc1cnoc1C(=O)N[C@H](c1cn2ncc([C@H](NC(=O)CCC(F)(F)F)C3CC3)cc2n1)C1CCC(F)(F)CC1 [Example 470, N—((S)-(7-((R)-Cyclopropyl(4,4,4-trifluorobutanamido)methyl)imidazo[1,2-b]pyridazin-2-yl)(4,4-difluorocyclohexyl)methyl)-4-ethylisoxazole-5-carboxamide] | 54 nM | 110 nM | 
CC(F)(F)c1cccc(C(=O)N[C@H](c2cn3ncc([C@H](NC(=O)CCC(F)(F)F)C4CC4)cc3n2)C2CCC(F)(F)CC2)n1 [Example 230, N—((S)-(7-((R)-Cyclopropyl(4,4,4-trifluorobutanamido)methyl)imidazo[1,2-b]pyridazin-2-yl)(4,4-difluorocyclohexyl)methyl)-6-(1,1-difluoroethyl)picolinamide] | 2000 nM | > 20000 nM | 
Cc1nonc1C(=O)N[C@H](c1cn2ncc(C(NC(=O)CCC(F)(F)F)C(C)C)cc2n1)C1CCC(F)(F)CC1 (single isomer, unassigned) [Example 504, N—((S)-(4,4-Difluorocyclohexyl)(7-((S*)-2-methyl-1-(4,4,4-trifluorobutanamido)propyl)imidazo[1,2-b]pyridazin-2-yl)methyl)-4-methyl-1,2,5-oxadiazole-3-carboxamide] | 46 nM |  | 93 nM
O=C(CCC(F)(F)F)N[C@@H](c1cnn2cc([C@@H](NC(=O)c3ccnc(OC(F)F)c3)C3CCC(F)(F)CC3)nc2c1)C1CC1 [Example 186, N—((S)-(7-((R)-Cyclopropyl(4,4,4-trifluorobutanamido)methyl)imidazo[1,2-b]pyridazin-2-yl)(4,4-difluorocyclohexyl)methyl)-2-(difluoromethoxy)isonicotinamide] | 110 nM | 720 nM | 
COc1conc1C(=O)N[C@H](c1cn2ncc([C@H](NC(=O)CCC(F)(F)F)C3CC3)cc2n1)C1CCC(F)(F)CC1 [Example 372, N—((S)-(7-((R)-Cyclopropyl(4,4,4-trifluorobutanamido)methyl)imidazo[1,2-b]pyridazin-2-yl)(4,4-difluorocyclohexyl)methyl)-4-methoxyisoxazole-3-carboxamide] | 120 nM | 740 nM | 
Cc1noc(C(=O)N[C@H](c2cn3ncc([C@H](NC(=O)CCC(F)(F)F)C4CC4)cc3n2)C2CCC(F)(F)CC2)c1C [Example 473, N—((S)-(7-((R)-Cyclopropyl(4,4,4-trifluorobutanamido)methyl)imidazo[1,2-b]pyridazin-2-yl)(4,4-difluorocyclohexyl)methyl)-3,4-dimethylisoxazole-5-carboxamide] | 8500 nM | > 20000 nM | 
